Experimental data: patent US20230123334A1, “AMINO LIPID COMPOUND, PREPARATION METHOD THEREFOR, AND APPLICATION THEREOF” (SHENZHEN SHENXIN BIOTECHNOLOGY CO., LTD., priority 2020, published 2023)

test system: HEK293 cells; experiment: Preliminary screening as DNA vectors, GFP transfection of HEK293 cells; format: cell-based; details: HEK293 cells; lipid/DOPE liposome with 75 ng plasmid DNA (psin-EGFP-IRES-Puro); number of cells expressing GFP divided by total number of nuclei (Hoechst)
Outline: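 HEK293 cells in DMEM/10% FBS transfected with 75 ng EGFP plasmid per well complexed with amino lipid/DOPE liposomes in pH 5.6 sodium acetate. Hoechst nuclear stain added 20-24 h post-transfection, then cells cultured another 20-24 h. Confocal imaging gives GFP-positive cells as % of total nuclei.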

SMILES | Absolute DNA transfection efficiency in HEK293 cells
CCCCCCCCCCCCN(CCCCCCCCCCCC)c1nc(NCCCCCCCCCCC)nc(NCCCN2CCOCC2)n1 [Compound N112N12D8] | 0.0%

same assay, conditions: amino lipid/DOPE liposome with 75 ng plasmid DNA (psin-EGFP-IRES-Puro); number of GFP-expressing cells divided by total nuclei (Hoechst)

SMILES | Absolute DNA transfection efficiency in HEK293 cells
CCCCCCCCCCCSc1nc(NCCCCCC)nc(NCCCN2CCN(C)CC2)n1 [S11N6 D9] | 13.5%
CCCCCCCCCSc1nc(NCCCCCCC)nc(NCCN2CCCCC2)n1 [S9N7 D4] | 21.9%
CCCCCCCCCCCCSc1nc(NCCCCCCCC)nc(NCCCN2CCN(C)CC2)n1 [S12N8 D9] | 8.9%
CCCCCCCCSc1nc(NCCCN2CCOCC2)nc(SCCCCCCC)n1 [S7S8 D8] | 3.7%
CCCCCCCCCNc1nc(NCCN(C)C)nc(SCCCCCCC)n1 [S7N9 D1] | 28.8%
CCCCCCCCCCCCCNc1nc(NCCN(C)C)nc(SCCCCCCC)n1 [S7N13 D1] | 11.7%
CCCCCCCCCCCCCCCSc1nc(NCC2CCN(C)CC2)nc(SCCCCCC)n1 [S6S15 D10] | 34.5%
CCCCCCCCCCCCCNc1nc(NCCCN2CCOCC2)nc(SCCCCCCCCC)n1 [S9N13 D8] | 11.3%
CCCCCCCCCCCNc1nc(NCCN2CCCCC2)nc(SCCCCCCCC)n1 [S8N11 D4] | 14.3%
CCCCCCCCSc1nc(NCCN2CCOCC2)nc(SCCCCCCCC)n1 [S8S8 D2] | 17.6%
CCCCCCCCCCCCCNc1nc(NCCN2CCCC2)nc(SCCCCCCCCCC)n1 [S10N13 D3] | 7.7%
CCCCCCCCCCCCCCCSc1nc(NCCCCCCCCCCC)nc(NCCN2CCCC2)n1 [S15N11 D3] | 20.9%
CCCCCCSc1nc(NCCN(C)C)nc(SCCCCCC)n1 [S6S6 D1] | 1.1%
CCCCCCCCCCCCCCCNc1nc(NCCN(C)C)nc(SCCCCCCCCCCC)n1 [S11N15 D1] | 12.5%
CCCCCCCCCCCSc1nc(NCC2CCN(C)CC2)nc(SCCCCCCCC)n1 [S8S11 D10] | 42.4%
CCCCCCCCCCCCCCSc1nc(NCCCCCCC)nc(NCCN2CCCC2)n1 [S14N7 D3] | 14.4%
CCCCCCCCCCCCCCCCCCNc1nc(NCCN2CCN(C)CC2)nc(SCCCCCCCCCCC)n1 [S11N18 D5] | 9.3%
CCCCCCCCCCCCSc1nc(NCCCN2CCN(C)CC2)nc(SCCCCCCC)n1 [S7S12 D9] | 4.8%
CCCCCCCCCCCCCCCCCCSc1nc(NCCCCCCCCCCCC)nc(NCCN2CCN(C)CC2)n1 [S18N12 D5] | 1.0%
CCCCCCCCCCCCCCCCCCNc1nc(NCCN2CCOCC2)nc(SCCCCCCCC)n1 [S8N18 D2] | 2.6%
CCCCCCCCCCCCCCSc1nc(NCCCCCCCCCCC)nc(NCCN2CCCCC2)n1 [S14N11 D4] | 3.1%
CCCCCCCCCCCCSc1nc(NCCCCCCCCCCC)nc(NCCCN(C)C)n1 [S12N11 D6] | 14.9%
CCCCCCCCCCCCCCCCNc1nc(NCCCN2CCOCC2)nc(SCCCCCCCCC)n1 [S9N16 D8] | 18.4%

SMILES | Absolute DNA transfection efficiency in HEK293 cells
CCCCCCCCCNc1nc(NCCN2CCCCC2)nc(SCCCCCCCCC)n1 [S9N9 D4] | 18.0%
CCCCCCCCCCCCCCCCNc1nc(NCC2CCN(C)CC2)nc(SCCCCCCCCCCCCCC)n1 [S14N16 D10] | 0.7%
CCCCCCCCCCCCCCCCNc1nc(NCCN(CC)CC)nc(SCCCCCCCCCC)n1 [S10N16 D7] | 4.8%
CCCCCCCCCCCCCCCSc1nc(NCCN2CCCC2)nc(SCCCCCCC)n1 [S7S15 D3] | 4.6%
CCCCCCCCCCCCSc1nc(NCCN(CC)CC)nc(N(CCCCCCCCCCCC)CCCCCCCCCCCC)n1 [S12^2N12 D7] | 0.1%
CCCCCCCCCCCCCCCCCCNc1nc(NCCN(C)C)nc(SCCCCCCCCCCC)n1 [S11N18 D1] | 13.8%
CCCCCCCCCCCCCCCCCCSc1nc(NCCCCCCCCCCCC)nc(NCCN(CC)CC)n1 [S18N12 D7] | 0.5%
CCCCCCCCCCCCCCCCSc1nc(NCCCCCCCCCCCC)nc(NCCCN2CCN(C)CC2)n1 [S16N12 D9] | 11.4%
CCCCCCCCCCCCNc1nc(NCCN2CCCCC2)nc(SCCCCCC)n1 [S6N12 D4] | 2.0%
CCCCCCCCCCCCN(CCCCCCCCCCCC)c1nc(NCCN2CCOCC2)nc(SCCCCCC)n1 [S6^2N12 D2] | 0.0%
CCCCCCCCCCCSc1nc(NCCCN(C)C)nc(SCCCCCCC)n1 [S7S11 D6] | 28.7%
CCCCCCCCCCCCCCCCSc1nc(NCCCN2CCOCC2)nc(SCCCCCCC)n1 [S7S16 D8] | 12.8%
CCCCCCCCCCCCSc1nc(NCCN2CCCCC2)nc(SCCCCCC)n1 [S6S12 D4] | 3.0%
CCCCCCCCCCCCNc1nc(NCCN2CCN(C)CC2)nc(SCCCCCCCCCC)n1 [S10N12 D5] | 2.6%
CCCCCCCCCCCCN(CCCCCCCCCCCC)c1nc(NCC2CCN(C)CC2)nc(SCCCCCC)n1 [S6^2N12 D10] | 0.0%
CCCCCCCCCCCCSc1nc(NCCN2CCCCC2)nc(N(CCCCCCCCCCCC)CCCCCCCCCCCC)n1 [S12^2N12 D4] | 0.0%
CCCCCCCCCSc1nc(NCC2CCN(C)CC2)nc(SCCCCCC)n1 [S6S9 D10] | 18.0%
CCCCCCCCCCCCSc1nc(NCCN2CCCC2)nc(N(CCCCCCCCCCCC)CCCCCCCCCCCC)n1 [S12^2N12 D3] | 0.0%
CCCCCCCCCCCCN(CCCCCCCCCCCC)c1nc(NCCN2CCN(C)CC2)nc(SCCCCCCCCCC)n1 [S10^2N12 D5] | 0.9%
CCCCCCCCCCCCCCCCCCNc1nc(NCCN2CCOCC2)nc(SCCCCCCCCCCC)n1 [S11N18 D2] | 2.8%
CCCCCCCCCCCCN(CCCCCCCCCCCC)c1nc(NCCCN(C)C)nc(SCCCCCCCCCCC)n1 [S11^2N12 D6] | 0.3%
CCCCCCCCCCCCCCCSc1nc(NCCCCCCC)nc(NCCN(C)C)n1 [S15N7 D1] | 18.2%
CCCCCCCCCCCCSc1nc(NCCN2CCOCC2)nc(SCCCCCCC)n1 [S7S12 D2] | 18.0%

SMILES | Absolute DNA transfection efficiency in HEK293 cells
CCCCCCCCCCCCN(CCCCCCCCCCCC)c1nc(NCCN2CCCCC2)nc(SCCCCCCCC)n1 [S8^2N12 D4] | 0.0%
CCCCCCCCCCCCCNc1nc(NCCN2CCN(C)CC2)nc(SCCCCCC)n1 [S6N13 D5] | 24.1%
CCCCCCCCCCCCCCCCSc1nc(NCCCCCCC)nc(NCCN(CC)CC)n1 [S16N7 D7] | 7.3%
CCCCCCCCCCCCSc1nc(NCCN2CCN(C)CC2)nc(N(CCCCCCCCCCCC)CCCCCCCCCCCC)n1 [S12^2N12 D5] | 0.3%
CCCCCCCNc1nc(NCCN2CCN(C)CC2)nc(SCCCCCCC)n1 [S7N7 D5] | 33.5%
CCCCCCCCCCCNc1nc(NCCN2CCOCC2)nc(SCCCCCCCCCCC)n1 [S11N11 D2] | 6.3%
CCCCCCCCCCCCCCCCCCNc1nc(NCCN(CC)CC)nc(SCCCCCCCCCCCCCCCC)n1 [S16N18 D7] | 0.0%
CCCCCCCCCCCCCCCCSc1nc(NCCCCCCCCCCCCC)nc(NCCN2CCCCC2)n1 [S16N13 D4] | 0.0%
CCCCCCCCCCCCCCCCCCNc1nc(NCCN(C)C)nc(SCCCCCCCCCCCCCCCCCC)n1 [S18N18 D1] | 0.1%
CCCCCCCCCCCCCCCCCCSc1nc(NCCCCCCCCCCCCCCCC)nc(NCCN2CCN(C)CC2)n1 [S18N16 D5] | 0.2%
CCCCCCCCCCCSc1nc(NCCCCCCCC)nc(NCCN2CCCC2)n1 [S11N8 D3] | 26.0%
CCCCCCCSc1nc(NCC2CCN(C)CC2)nc(SCCCCCC)n1 [S6S7 D10] | 21.6%
CCCCCCCCCCCCSc1nc(NCCN(CC)CC)nc(SCCCCCCC)n1 [S7S12 D7] | 7.1%
CCCCCCCCCSc1nc(NCCCCCC)nc(NCCN2CCCCC2)n1 [S9N6 D4] | 20.7%
CCCCCCCCNc1nc(NCCN2CCCC2)nc(SCCCCCC)n1 [S6N8 D3] | 2.0%
CCCCCCCCCCCNc1nc(NCCCN(C)C)nc(SCCCCCCC)n1 [S7N11 D6] | 42.1%
CCCCCCCCCCCCCCCCNc1nc(NCC2CCN(C)CC2)nc(SCCCCCCCCCC)n1 [S10N16 D10] | 8.7%
CCCCCCCCCCCCSc1nc(NCCCCCCCCCCC)nc(NCCN2CCCC2)n1 [S12N11 D3] | 30.3%
CCCCCCCCCCCCCCCCCCNc1nc(NCCN2CCCCC2)nc(SCCCCCCCC)n1 [S8N18 D4] | 0.9%
CCCCCCCCCCCCCCCCCCNc1nc(NCCN2CCN(C)CC2)nc(SCCCCCCCCCC)n1 [S10N18 D5] | 1.8%
CCCCCCCCCCCCNc1nc(NCCCN2CCN(C)CC2)nc(SCCCCCCCCC)n1 [S9N12 D9] | 28.8%
CCCCCCCCCCCCCCSc1nc(NCCN2CCN(C)CC2)nc(SCCCCCCC)n1 [S7S14 D5] | 10.7%
CCCCCCCCCNc1nc(NCCN(CC)CC)nc(SCCCCCCCC)n1 [S8N9 D7] | 26.0%
